Test results as given in US20240423968A1, “USE OF PROTEASOME-TARGETING SMALL MOLECULES TO MITIGATE MUSCLE WASTING” (The Board of Regents of the University of Texas System, priority 2023, published 2024).
Where two headings read alike, the source gives them in different places.

Assays:
[1] = biological target: 20S human housekeeping proteasome (Homo sapiens, UniProt P28074); test: 20S ChT-L proteolytic activity assay (Suc-LLVY-AMC hydrolysis, Rpt5 peptide-activated); format: biochemical; settings: for activity against 20S ChT-L proteolysis, in words: SAR comparison
Description: Compounds were evaluated for proteasome activity using the 20S human housekeeping proteasome. It was activated with the Rpt5 derived 10-residue peptide that contains the C-terminal HbYX (hydrophobic-Tyr-any AA) motif activating the proteasome in trans and to some extend mimic the activation by the 19S regulatory particle (Osmulski and Gaczynska (2013) Molecular pharmacology 84: 104-113; Smith et al. (2006) J. Struct. Biol. 156: 72-83; Smith et al. (2007) Mol. Cell 27: 731-744). Proteolytic activity was monitored over time using a fluorogenic peptide substrate specific for the chymotrypsin-like active center (ChT-L, Suc-LLVY-AMC) in the presence of a concentration range of the inhibitors. In this activity assay, hydrolysis of the substrate results in release of the highly fluorescent aminomethylcoumarin fluorophore. The linear portions of the fluorescence intensity plots were used to calculate the rates of Suc-LLVY-AMC hydrolysis and an IC50 (concentration of drug at which 50% of the maximum rate inhibition occurs) is determined.

[2] = tested on: autophagy-related protein 7 (ATG7); test: Levels of autophagy-related protein 7 (ATG7) in lysates (Western blotting); format: cell-based, mouse; settings: model-wasted cells
From the text: (§1) The mechanism of the anti-wasting action of proteasome modulators can be probed by measuring the 26S activity in lysates and measuring the levels of autophagy-related protein 7 (ATG7) in lysates. Excessive activity of 26S holoenzyme bears prime responsibility for degradation of muscle proteins during wasting. […] Autophagy, alongside proteasome pathway, aggravates degeneration.

C2C12 cells = test: Principal component analysis of AFM-assessed mechanical parameters of model myotubes; format: cell-based, mouse; settings: C2C12 cells treated with TNFα plus compound
Description: (§2) Cultured cells growing on dishes were scanned with a Catalyst Atomic Force Microscope (Bruker) mounted on a Nikon Ti inverted epifluorescent microscope. Nanomechanical parameters of cells were collected in the Quantitative Nanomechanical Mapping (PF-QNM) mode of the AFM. Before AFM imaging, optical images were recorded for each cell. SCANASYST-AIR probes were used for imaging after their spring constant was determined with the thermal tuning. Cell boundaries were located with peak force error (PFE) AFM images and further verified with height images. Nanomechanical parameters of cells were captured in three separate PF-QNM channels: elasticity (or stiffness—the Young's modulus), deformation and adhesion. Analysis of these parameters was performed with NanoScope Analysis software v. 1.7 (Osmulski, P. A., et al., Cancer Res. 2021 Aug. 1; 81(15):4110-4123). Force curves were fit to the Sneddon model. Mode values of the mechanical parameters for individual cells were calculated from the corresponding distribution histograms. The Texture Aspect Ratio, as a measure of the spatial isotropy or directionality of the surface texture was calculated from the square height images of cells after applying the first order flatten function (Roughness Analysis in NanoScope Analysis v. 1.7).
Mouse C2C12 myoblasts were purchased in American Tissue Type Collection (ATCC CRL-1772) were cultured in Dulbecco's modified Eagle's medium (DMEM) supplementec with 15% fetal bovine serum (FBS) and penicillin/streptomycin, at 37° C. and 5% CO2. […]
Principal component analysis (PCA) was utilized to evaluate the AFM-assessed mechanical parameters of model myotubes in C2C12 cells treated with TNFα alone or with compounds B1 or C3. […]

[3] = tested on: C2C12-derived mouse myocytes; test: Cellular AFM: cell surface isotropy (cytoskeleton organization) of model myotubes; format: cell-based; settings: compound accompanies TNFα; AFM roughness analysis
Description: as §2, with “Nanomechanical parameters of cells were captured in three separate PF-QNM channels: elasticity (or stiffness—the Young's modulus), deformation and adhesion. Analysis of these parameters was performed with NanoScope Analysis software v. 1.7 (Osmulski, P. A., et al., Cancer Res. 2021 Aug. 1; 81(15):4110-4123). Force curves were fit to the Sneddon model.” left out, “1.7). […]” for “1.7).”
Cellular atomic force microscopy (AFM) of C2C12-derived mouse myocytes was utilized to show the effect of TNFα on the cytosketon organization of the myotube surface patterns (FIG. 5). The regularity of the pattern can be assessed by roughness analysis of the AFM images.
The surface isotropy parameter can quantify the regularity of the patterns observed in AFM. […]

26S holoenzyme = test: 26S activity in lysates (in-gel activity assay, Suc-LLVY-MCA overlay); format: cell-based, mouse; settings: model-wasted cells
From the text: as §1

C2C12 myotubes = test: Myotube morphology (diameters) in the TNFα-induced muscle atrophy cell culture model; format: cell-based, mouse; settings: for myotube morphology when applied alongside TNFα: TNFα 15 ng/ml for 72 hours, compound added together with TNFα; for effect on cell morphology in the control: compound without TNFα
Description: Mouse C2C12 myoblasts were purchased in American Tissue Type Collection (ATCC CRL-1772) were cultured in Dulbecco's modified Eagle's medium (DMEM) supplementec with 15% fetal bovine serum (FBS) and penicillin/streptomycin, at 37° C. and 5% CO2. After reaching confluence the myoblasts were differentiated into myotubes by culturing for 72 hours under low-serum conditions (2% horse serum, 0.5 microgram/ml insulin. After that, model muscle atrophy was induced by the treatment with tumor necrosis factor alpha (TNFα) at 15 ng/ml for 72 hours. Vehicle (dimethylsulfoxide; DMSO) or desired compounds (B1, C3, bortezomib) were added to the culture medium together with TNFα.
Myotubes were visualized as described in Eric J. Stevenson, et al., Journal of Applied Physiology 2005 98:4, 1396-1406. All myotubes analyzed in randomly selected microscope fields, with three diameters per tube and at least 50 myotubes analyzed per experimental point.
The diameters of C2C12 myotubes can be utilized to look for indications of degeneration.

[4] = tested on: myofibers in quadriceps of tumor-bearing mice; test: In vivo mouse model of cancer cachexia (nude mice xenografted with PC3 cells), quadriceps myofiber diameters, H&E
Description: The mouse model of cancer-related muscle wasting consistent of nude mice xenografted with human cultured androgen-resistant prostate cancer PC3 cells. The mice were treated intra-tumorally (IT) with the vehicle (dimethylsulfoxide; DMSO); 8 control mice) or with 10 mg/kg of compound 3. Three injections per week (Mondays, Wednesdays, and Fridays) were carried for three weeks. After that, mice were sacrificed and quadriceps muscle tissues were preserved by standard formalin fixing. Muscle tissue slices were stained with hematoxilin and eosin (H&E standard staining) to visualize muscle fibers and enable myofiber diameter measurements under a standard microscope. Myofibers for 4 control (vehicle-treated) and 4 compound 3-treated mice were measured.
The quadriceps muscle in tumor-bearing mice treated with C3 […] a weeks for three weeks was compared to control using H&E-stained tissues slices (FIG. 10). Frequency analysis of diameters of myofibers (400 myofibers each) from tumor-bearing mice (4 each of the control-vehicle and c3 (10 mg/kg)) was performed (FIG. 11).

[5] = Table 2, pipecolic acid derivatives, ChT-L activity of 20S, read-out: IC50
[6] = read-out: IC50, ChT-L activity of the 20S proteasome
[7] = Table 3, proline derivatives, ChT-L activity of 20S, read-out: IC50

## COC(=O)N1CCCC[C@H]1C(=O)OCCCc1cc(OC)c(OC)c(OC)c1 [Compound 5]
[1]
  activity against 20S ChT-L proteolysis, in words: completely abrogated activity
[1]; [5]
  IC50: > 50 µM

## COc1cc(CCCOC(=O)C2CCCCN2C(=O)OCc2ccccc2)cc(OC)c1OC (racemic) [Compound 2]
[1]; [6]
  IC50: 11.5 µM

## O=C(O)[C@@H]1CCCCN1C(=O)OCc1ccccc1 [Compound 10]
[1]; [5]
  IC50: > 50 µM

## COc1cc(CCOC(=O)[C@@H]2CCCCN2C(=O)OCc2ccccc2)cc(OC)c1OC [Compound 6]
[1]; [5]
  IC50: 20.1 µM

## COc1cc(COC(=O)[C@@H]2CCCCN2C(=O)OCc2ccccc2)cc(OC)c1OC [Compound 7]
[1]
  activity against 20S ChT-L proteolysis, in words: significantly reduced its activity
[1]; [5]
  IC50: 19.8 µM

## O=C(OCc1ccccc1)[C@@H]1CCCN1C(=O)OCc1ccccc1 [Compound 15]
[1]
  activity against 20S ChT-L proteolysis, in words: decreased activity
[1]; [7]
  IC50: 33.5 µM

## CCCOC(=O)[C@@H]1CCCCN1C(=O)OCc1ccccc1 [Compound 9]
[1]; [5]
  IC50: > 50 µM

## COc1cc(CCCOC(=O)[C@@H]2CCCCN2C(=O)OCC(C)C)cc(OC)c1OC [Compound 4]
[1]; [6]
  IC50: 15.2 µM

## COc1cc(CCCOC(=O)[C@@H]2CCCCN2C(=O)OCc2ccccc2)cc(OC)c1OC [Compound 3]
[2]
  autophagy (ATG7 levels in lysates): does not affect or mitigates autophagy
C2C12 cells
  AFM-assessed mechanical parameters (PCA phenotype): preserve the control-like phenotypes
[3]
  cell surface patterning (surface isotropy): remains control-like
26S holoenzyme
  26S activity in lysates: mitigates the activity
C2C12 myotubes
  myotube morphology when applied alongside TNFα: restored the morphogy to control-like status
  effect on cell morphology in the control: no effect on the cell morphology
[4]; 400 myofibers each, 4 mice each, 10 mg/kg vs control-vehicle, difference significant at p<1.47×10^−21
  diameters of myofibers (frequency analysis): Higher values of myofiber diameters
[4]; tumor-bearing mice, 10 mg/kg intra-tumorally, three weeks, vs vehicle
  myofiber morphology in quadriceps: improved myofiber morphology
[1]; [5]
  IC50: 2 µM
[1]; [6]
  IC50: 3.1 µM

## O=C(OCCCc1ccccc1)[C@@H]1CCCCN1C(=O)OCc1ccccc1 [Compound 8]
[1]
  activity against 20S ChT-L proteolysis, in words: significantly reduced its activity
[1]; [5]
  IC50: 2.6 µM

## COc1cc(CCCOC(=O)[C@@H]2CCCN2C(=O)OCc2ccccc2)cc(OC)c1OC [Compound 12]
[1]
  activity against 20S ChT-L proteolysis, in words: modest activity
[1]; [7]
  IC50: 23.8 µM

## O=C(OCCc1ccccc1)[C@@H]1CCCN1C(=O)OCc1ccccc1 [Compound 14]
[1]
  activity against 20S ChT-L proteolysis, in words: decreased activity
[1]; [7]
  IC50: 19.2 µM

## O=C(OCCCc1ccccc1)[C@@H]1CCCN1C(=O)OCc1ccccc1 [Compound 13]
[1]; [6]
  IC50: 6.6 µM

## COc1cc(CCCOC(=O)[C@@H]2CCCN(C(=O)OCc3ccccc3)C2)cc(OC)c1OC [Compound 11]
[1]; [5]
  IC50: 14.7 µM

## CC(C)C[C@H](NC(=O)[C@H](Cc1ccccc1)NC(=O)c1cnccn1)B(O)O [bortezomib, reference compound]
[2]
  autophagy (ATG7 levels in lysates): upregulates autophagy
C2C12 cells
  AFM-assessed mechanical parameters (PCA phenotype): does not protect the phenotypes
C2C12 myotubes
  myotube morphology when applied alongside TNFα: failed to protect the myotubes
  effect on cell morphology in the control: harmed the cells

## COc1cc(CCCOC(=O)C2CCCCN2C(=O)C(=O)C2CCCCC2)cc(OC)c1OC (racemic) [B1]
[2]
  autophagy (ATG7 levels in lysates): does not affect or mitigates autophagy
C2C12 cells
  AFM-assessed mechanical parameters (PCA phenotype): preserve the control-like phenotypes
[3]
  cell surface patterning (surface isotropy): remains control-like
26S holoenzyme
  26S activity in lysates: mitigates the activity
C2C12 myotubes
  myotube morphology when applied alongside TNFα: restored the morphogy to control-like status
  effect on cell morphology in the control: no effect on the cell morphology
[1]; [5]
  IC50: 5.8 µM
